These results are taken from US11352371B2, “Thienopyrimidine derivatives as ACC inhibitors and uses thereof” (Gilead Sciences, Inc., priority 2019, dated 2022).

The first test deals with HepG2 cells. Kind of test: In vitro De Novo Lipogenesis (DNL) assay, 13C-acetate incorporation into palmitic acid. Type of test: cell-based. To be noted: 1 hour preincubation, 24 hours with 10 mM 13C-labeled acetate. On the procedure:
De Novo Lipogenesis (DNL) was measured in vitro in HepG2 cells by quantifying the incorporation of ^13C-labeled acetate into palmitic acid.
HepG2 cells were plated in growth medium (DMEM (Corning cat #15-018-CM) supplemented with 10% FBS (HyClone cat #SH30071-03), and 1× penicillin, streptomycin, glutamine (Corning cat #30-009-CI)) at 10,000 cells/well in a 384-well cell culture-treated plate (Greiner cat #781091). The cells were then incubated overnight at 37° C., 5% CO2. The next day, the cells were washed twice with sterile DPBS (Corning cat #21-031-CM) and the culture medium was changed to fresh growth medium. The compounds of interest were dosed to cells, followed by a 1 hour incubation at 37° C., 5% CO2. ^13C-labeled acetate (Sigma-Aldrich cat #279315-1G) was added to the culture medium at a concentration of 10 mM and the cells were incubated for 24 hours at 37° C., 5% CO2.
In order to analyze the lipid content of the HepG2 cells, the culture medium was removed and the cells were lysed by adding 30 μL of 0.1 M NaOH. After 5 minutes of incubation at room temperature, 15 μL of cell lysate was transferred to a 384-well deep-well plate (Sigma-Aldrich cat #BR701355-48EA) containing 15 μL of 7.3% KOH in ethanol and mixed. This plate was sealed and incubated at 70° C. for 4 hours to hydrolyze the lipids to free fatty acids. 100 μL of acetonitrile was then added and the plate was spun at 3,700 g for 20 minutes to separate the organic and aqueous phases. 50 μL from the top (organic) phase was transferred to a new 384-well plate (NUNC cat #264573) and the samples were analyzed by mass spectrometry using a RapidFire coupled to a QTOF mass spectrometer. The sum of the area under curve (AUC) for palmitate containing 3 to 7 ^13C was normalized with the AUC of oleate and plotted against compound concentration to determine the potency of ACC inhibitors. […]
On to “2-(1-((R)-2-(((1R,3s,5S)-8-oxabicyclo[3.2.1]octan-3-yl)oxy)-2-(2-methoxyphenyl)ethyl)-5-methyl-6-(oxazol-2-yl)-2,4-dioxo-1,4-dihydrothieno[2,3-d]pyrimidin-3 (2H)-yl)-N-(tert-butylsulfonyl)-2-methylpropanamide [Example 3]”, for which the EC50 (commonly the midpoint of the concentration-response curve) came to 1.5 nM.

Staying with this test, now noted: Homo sapiens, 1 hour preincubation, 24 hours with 10 mM 13C-labeled acetate.
`Cc1c(-c2ncco2)sc2c1c(=O)n(C(C)(C)C(=O)NS(=O)(=O)c1ccccn1)c(=O)n2C[C@H](O[C@@H]1C[C@H]2CC[C@@H](C1)O2)c1cc(F)ccc1OC(F)F` [Example 9, 2-(1-((R)-2-(((1R,3s,5S)-8-oxabicyclo[3.2.1]octan-3-yl)oxy)-2-(2-(difluoromethoxy)-5-fluorophenyl)ethyl)-5-methyl-6-(oxazol-2-yl)-2,4-dioxo-1,4-dihydrothieno[2,3-d]pyrimidin-3(2H)-yl)-2-methyl-N-(pyridin-2-ylsulfonyl)propanamide] returned an EC50 of 215 nM.

`COc1ccccc1[C@H](Cn1c(=O)n(C(C)(C)C(=O)NS(=O)(=O)C2(C(F)F)CC2)c(=O)c2c(C)c(-c3ncco3)sc21)O[C@@H]1C[C@H]2CC[C@@H](C1)O2` [Example 2, 2-(1-((R)-2-(((1R,3s,5S)-8-oxabicyclo[3.2.1]octan-3-yl)oxy)-2-(2-methoxyphenyl)ethyl)-5-methyl-6-(oxazol-2-yl)-2,4-dioxo-1,4-dihydrothieno[2,3-d]pyrimidin-3(2H)-yl)-N-((1-(difluoromethyl)cyclopropyl)sulfonyl)-2-methylpropanamide]: it took 5.9 nM to reach a half-maximal effect (EC50).

In turn, `Cc1c(-n2nccn2)sc2c1c(=O)n(C(C)(C)C(=O)NS(=O)(=O)C1(C)CC1)c(=O)n2C[C@H](O[C@H]1C[C@H]2CC[C@@H](C1)O2)c1ccccc1OC(F)F` [Example 21, 2-(1-((R)-2-(((1R,3r,5S)-8-oxabicyclo[3.2.1]octan-3-yl)oxy)-2-(2-(difluoromethoxy)phenyl)ethyl)-5-methyl-2,4-dioxo-6-(2H-1,2,3-triazol-2-yl)-1,4-dihydrothieno[2,3-d]pyrimidin-3(2H)-yl)-2-methyl-N-((1-methylcyclopropyl)sulfonyl)propanamide] yielded an EC50 of 29.7 nM.

Regarding `COc1ccccc1[C@H](Cn1c(=O)n(C(C)(C)C(=O)NS(=O)(=O)C2(C)CC2)c(=O)c2c(C)c(C#N)sc21)O[C@@H]1C[C@H]2CC[C@@H](C1)O2` [Example 32, 2-(1-((R)-2-(((1R,3s,5S)-8-oxabicyclo[3.2.1]octan-3-yl)oxy)-2-(2-methoxyphenyl)ethyl)-6-cyano-5-methyl-2,4-dioxo-1,4-dihydrothieno[2,3-d]pyrimidin-3(2H)-yl)-2-methyl-N-((1-methylcyclopropyl)sulfonyl)propanamide], the midpoint of the response, the EC50, lay at 9.9 nM.

`Cc1c(-c2ncco2)sc2c1c(=O)n(C1(C(=O)NS(=O)(=O)C(C)(C)C)CC1)c(=O)n2C[C@H](O[C@@H]1C[C@H]2CC[C@@H](C1)O2)c1ccccc1OC(F)F` [Example 13, 1-(1-((R)-2-(((1R,3s,5S)-8-oxabicyclo[3.2.1]octan-3-yl)oxy)-2-(2-(difluoromethoxy)phenyl)ethyl)-5-methyl-6-(oxazol-2-yl)-2,4-dioxo-1,4-dihydrothieno[2,3-d]pyrimidin-3(2H)-yl)-N-(tert-butylsulfonyl)cyclopropane-1-carboxamide] yielded an EC50 of 882 nM. Compared with the last molecule, the EC50 is about 89-fold higher.

Molecule `COc1ccccc1[C@H](Cn1c(=O)n(C(C)(C)C(=O)NS(=O)(=O)C2(C)CC2)c(=O)c2c(C)c(-n3nccn3)sc21)O[C@@H]1C[C@H]2CC[C@@H](C1)O2` [Example 19, 2-(1-((R)-2-(((1R,3s,5S)-8-oxabicyclo[3.2.1]octan-3-yl)oxy)-2-(2-methoxyphenyl)ethyl)-5-methyl-2,4-dioxo-6-(2H-1,2,3-triazol-2-yl)-1,4-dihydrothieno[2,3-d]pyrimidin-3(2H)-yl)-2-methyl-N-((1-methylcyclopropyl)sulfonyl)propanamide] showed an EC50 of 1 nM.

The molecule `Cc1c(-c2ncco2)sc2c1c(=O)n(C1(C(=O)NS(=O)(=O)C(C)(C)C)CC1)c(=O)n2C[C@H](O[C@@H]1C[C@H]2CC[C@@H](C1)O2)c1cc(F)ccc1OC(F)F` [Example 11, 1-(1-((R)-2-(((1R,3s,5S)-8-oxabicyclo[3.2.1]octan-3-yl)oxy)-2-(2-(difluoromethoxy)-5-fluorophenyl)ethyl)-5-methyl-6-(oxazol-2-yl)-2,4-dioxo-1,4-dihydrothieno[2,3-d]pyrimidin-3(2H)-yl)-N-(tert-butylsulfonyl)cyclopropane-1-carboxamide] gave an EC50 of 66.2 nM.

In turn, `Cc1c(-c2ncco2)sc2c1c(=O)n(C1(C(=O)NS(=O)(=O)C3(C)CC3)CC1)c(=O)n2C[C@H](O[C@@H]1C[C@H]2CC[C@@H](C1)O2)c1ccccc1OC(F)F` [Example 14, 1-(1-((R)-2-(((1R,3s,5S)-8-oxabicyclo[3.2.1]octan-3-yl)oxy)-2-(2-(difluoromethoxy)phenyl)ethyl)-5-methyl-6-(oxazol-2-yl)-2,4-dioxo-1,4-dihydrothieno[2,3-d]pyrimidin-3(2H)-yl)-N-((1-methylcyclopropyl)sulfonyl)cyclopropane-1-carboxamide] came in with an EC50 of 29.8 nM. This EC50 is about 2.2-fold lower than that of the molecule before.

As to `COCCOc1ccccc1[C@H](Cn1c(=O)n(C(C)(C)C(=O)NS(=O)(=O)C2(C)CC2)c(=O)c2c(C)c(-n3nccn3)sc21)O[C@@H]1C[C@H]2CC[C@@H](C1)O2` [Example 24, 2-(1-((R)-2-(((1R,3s,5S)-8-oxabicyclo[3.2.1]octan-3-yl)oxy)-2-(2-(2-methoxyethoxy)phenyl)ethyl)-5-methyl-2,4-dioxo-6-(2H-1,2,3-triazol-2-yl)-1,4-dihydrothieno[2,3-d]pyrimidin-3(2H)-yl)-2-methyl-N-((1-methylcyclopropyl)sulfonyl)propanamide], the EC50 turned out to be 24.3 nM.

`Cc1c(-n2nccn2)sc2c1c(=O)n(C1(C(=O)NS(=O)(=O)C(C)(C)C)CC1)c(=O)n2C[C@H](O[C@H]1C[C@H]2CC[C@@H](C1)O2)c1ccccc1OC(F)F` [Example 22, 1-(1-((R)-2-(((1R,3r,5S)-8-oxabicyclo[3.2.1]octan-3-yl)oxy)-2-(2-(difluoromethoxy)phenyl)ethyl)-5-methyl-2,4-dioxo-6-(2H-1,2,3-triazol-2-yl)-1,4-dihydrothieno[2,3-d]pyrimidin-3(2H)-yl)-N-(tert-butylsulfonyl)cyclopropane-1-carboxamide] showed an EC50 of 916 nM.

Take `Cc1c(-c2ncco2)sc2c1c(=O)n(C1(C(=O)NS(=O)(=O)C3(C)CC3)CC1)c(=O)n2C[C@H](O[C@@H]1C[C@H]2CC[C@@H](C1)O2)c1cc(F)ccc1OC(F)F` [Example 10, 1-(1-((R)-2-(((1R,3s,5S)-8-oxabicyclo[3.2.1]octan-3-yl)oxy)-2-(2-(difluoromethoxy)-5-fluorophenyl)ethyl)-5-methyl-6-(oxazol-2-yl)-2,4-dioxo-1,4-dihydrothieno[2,3-d]pyrimidin-3(2H)-yl)-N-((1-methylcyclopropyl)sulfonyl)cyclopropane-1-carboxamide]: the EC50 turned out to be 48.3 nM.

In turn, `COc1ccccc1[C@H](Cn1c(=O)n([C@@H](C)C(=O)NS(=O)(=O)C2(C)CC2)c(=O)c2c(C)c(-c3ncco3)sc21)O[C@@H]1C[C@H]2CC[C@@H](C1)O2` [Example 16, (S)-2-(1-((R)-2-(((1R,3s,5S)-8-oxabicyclo[3.2.1]octan-3-yl)oxy)-2-(2-methoxyphenyl)ethyl)-5-methyl-6-(oxazol-2-yl)-2,4-dioxo-1,4-dihydrothieno[2,3-d]pyrimidin-3(2H)-yl)-N-((1-methylcyclopropyl)sulfonyl)propanamide] had a concentration giving a half-maximal response (EC50) of 1.9 nM.

The molecule `Cc1c(-n2nccn2)sc2c1c(=O)n(C1(C(=O)NS(=O)(=O)C3(C)CC3)CC1)c(=O)n2C[C@H](O[C@@H]1C[C@H]2CC[C@@H](C1)O2)c1cc(F)ccc1OC(F)F` [Example 28, 1-(1-((R)-2-(((1R,3s,5S)-8-oxabicyclo[3.2.1]octan-3-yl)oxy)-2-(2-(difluoromethoxy)-5-fluorophenyl)ethyl)-5-methyl-2,4-dioxo-6-(2H-1,2,3-triazol-2-yl)-1,4-dihydrothieno[2,3-d]pyrimidin-3(2H)-yl)-N-((1-methylcyclopropyl)sulfonyl)cyclopropane-1-carboxamide] yielded an EC50 of 0.9 nM.

The molecule `Cc1c(-n2nccn2)sc2c1c(=O)n(C1(C(=O)NS(=O)(=O)C(C)(C)C)CC1)c(=O)n2C[C@H](O[C@@H]1C[C@H]2CC[C@@H](C1)O2)c1cc(F)ccc1OC(F)F` [Example 29, 1-(1-((R)-2-(((1R,3s,5S)-8-oxabicyclo[3.2.1]octan-3-yl)oxy)-2-(2-(difluoromethoxy)-5-fluorophenyl)ethyl)-5-methyl-2,4-dioxo-6-(2H-1,2,3-triazol-2-yl)-1,4-dihydrothieno[2,3-d]pyrimidin-3(2H)-yl)-N-(tert-butylsulfonyl)cyclopropane-1-carboxamide] registered an EC50 of 10.2 nM.
